Reference: patent US7183459B2, “Dwf7 mutants” (The Arizona Board of Regents on Behalf of the University of …, priority 2000, dated 2007)
Like-named read-outs stand apart in the source and are kept apart here.

Tests used:
dwf7-1 plants [1] = assay: GA3 spray on 3-week-old dwf7-1 plants; format: in vivo, Arabidopsis thaliana; settings: 0.1 mM GA3 sprayed
wild-type plants = assay: GA3 spray on wild-type plants; format: in vivo, Arabidopsis thaliana; settings: 0.1 mM GA3 sprayed
Text: The overall morphology of plants is dependent on three factors: cell size, shape, and number (Cosgrove (1997) Plant Cell 9:1031–1041). Various signals modulate these factors. Environmental signals, such as water, temperature, and light, are transduced to invoke internal hormone signals, including auxins, gibberellins, and BRs. These signals then trigger the cell elongation process, including but not limited to cell wall loosening by xyloglucan endotransglycosylases and expansins. Thus, a block in any of the signal transduction cascades from the environmental signals to the cell elongation process could result in dwarfism. Mutants resistant to or deficient in classic hormones, such as auxin (e.g., auxin resistant2 [axr2]; Timpte (1992) Genetics 138:1239–1249) and gibberellin ([ga1 to ga5 and gai]; Koornneef and van der Veen (1980) Theor. Appl. Genet. 58:257-263; Koornneef et al. (1985) Physiol. Plant. 65:33–39), often result in dwarfism. Thus, we first tested whether dwf7 is either rescued by or resistant to exogenous application of these hormones. […] The reduction of hypocotyl length in dwf7-1 was rescued by the application of BL (FIG. 3). Both wild-type and dwf7-1 plants responded to BL, but dwf7-1 plants were hypersensitive. The length of dwf7-1 hypocotyls was increased 160% in response to 1 nM BL as compared with the untreated control, whereas the wild-type responded marginally (5%).

[2] = tested on: wild-type Arabidopsis seedlings; assay: Effects of compactin and MVA on growth of seedlings in liquid media; format: in vivo
[3] = tested on: Δ^7 sterol C-5 desaturase; settings: enzyme prepared from maize microsomes; cited from earlier work
dwf7-1 plants [4] = assay: Feeding of BR biosynthetic intermediates to shoot tips of 3-week-old dwf7-1 plants; format: in vivo, Arabidopsis thaliana; settings: for elongation of dwf7-1 pedicels in response to BRs: FIG. 4 legend, versus water, n>15
Description: (§1) Feeding experiments using biosynthetic intermediates were performed with 3-week-old mutant plants. The intermediates tested were diluted to the desired concentration with water containing 0.01% Tween 20. Two microliters of each brassinosteroid (BR) solution was applied daily to the shoot tips of plants by using a micro pipettman. After 1 week of treatment, total growth of inflorescence and pedicels was measured to the nearest millimeter (n=15).
To pinpoint the defective step in the BR biosynthetic pathway, dwf7-1 mutants were treated with BR biosynthetic intermediates. Due to undetectable bioactivity of some early intermediates (CR to 6-oxocampestanol) in bioassays (Fujioka et al. 1995; Choe et al. (1998) Plant Cell 10:231–243), these were not used. Instead, three biologically active compounds were chosen, 22-OHCR, 6-deoxoCT, and BL, for these feeding tests (see FIG. 1). Because the 22α-hydroxylation reaction is reported to be mediated by DWF4 (Choe et al. (1998) Plant Cell 10:231–243), biochemical complementation of dwf mutants other than dwf4 by 22-OHCR places the defective step upstream of CR.
(§2) Similarly, 3-week-old inflorescences of dwf7-2 were tested with 22-OHCR, 6-deoxoCT, teasterone, and BL.

dwf7-2 = assay: Feeding of BR biosynthetic intermediates to dwf7-2 inflorescences; format: in vivo, Arabidopsis thaliana; settings: for elongation of pedicels and internodes of dwf7-2: 3-week-old inflorescences of dwf7-2; for biochemical complementation of the dwf7-2 allele: in vivo
Description: as §1
A second allele of dwf7 was identified among 43 dwarf mutants isolated by screening >50,000 M2 seeds of an EMS mutant population.
as §2

[5] = tested on: Wassilewskija-2 (Ws-2) wild type hypocotyls
Description: (§3) Biochemical complementation of dwf7-1 plants with different concentrations of brassinolide (BL) was performed in liquid media. BL-supplemented (control, 10^−9, 10^−8, and 10^−7 M) sterile liquid media (1.5 mL) was dispensed into wells of a 24-well plate (Corning Co., Corning, N.Y.). Three seedlings, germinated on agar-solidified media, were transferred into each well. After a week of growth with continuous shaking (230 rpm), the seedlings were lightly stained with toluidine blue, and hypocotyls and roots were measured to the nearest millimeter.

Description for dwf7-1 hypocotyls: as §3

C=C1C[C@]23C[C@@]1(O)CC[C@H]2[C@@]12C=C[C@H](O)[C@@](C)(C(=O)O1)[C@H]2[C@@H]3C(=O)O [GA3]
rescue of the dwf7-1 phenotype (dwf7-1 plants [1]): did not rescue | increase of inflorescence height (dwf7-1 plants [1]; 3-week-old dwf7-1 plants): < 10% | increase of inflorescence height (wild-type plants): < 10%

CC[C@H](C)C(=O)O[C@H]1CCC=C2C=C[C@H](C)[C@H](CC[C@@H]3C[C@@H](O)CC(=O)O3)[C@H]21 [compactin, mevastatin]
growth of seedlings ([2]; 10 μM compactin, liquid media): almost completely inhibited

[C-]#[O+] [carbon monoxide]
effect on enzyme [3]: insensitive

CC(C)[C@H](C)C[C@H](O)[C@@H](C)[C@H]1CC[C@H]2[C@@H]3CC=C4C[C@@H](O)CC[C@]4(C)[C@H]3CC[C@]12C [22-OHCR, 22 α-hydroxycampesterol]
elongation of dwf7-1 pedicels in response to BRs (dwf7-1 plants [4]): greater than twofold | growth of treated dwf7-1 pedicels relative to wild-type (dwf7-1 plants [4]; in vivo): greater than or equal to that of the wild-type | rescue of dwf7-1 by exogenous application (dwf7-1 plants [4]; in vivo): Rescue | elongation of pedicels and internodes of dwf7-2 (dwf7-2): significant elongation | biochemical complementation of the dwf7-2 allele (dwf7-2): biochemically complemented

CC(C)[C@H](C)[C@@H](O)[C@H](O)[C@@H](C)[C@H]1CC[C@H]2[C@@H]3CC(=O)[C@H]4C[C@@H](O)CC[C@]4(C)[C@H]3CC[C@]12C [teasterone]
elongation of pedicels and internodes of dwf7-2 (dwf7-2): significant elongation

CC(C)[C@H](C)C[C@H](O)[C@@H](C)[C@H]1CC[C@H]2[C@@H]3CC(=O)[C@H]4C[C@@H](O)CC[C@]4(C)[C@H]3CC[C@]12C [cathasterone]
biochemical complementation of the dwf7-2 allele (dwf7-2): biochemically complemented

CC(C)[C@H](C)C[C@H](O)[C@@H](C)[C@H]1CC[C@H]2[C@@H]3CC[C@H]4C[C@@H](O)CC[C@]4(C)[C@H]3CC[C@]12C [6-deoxoCT]
elongation of dwf7-1 pedicels in response to BRs (dwf7-1 plants [4]): greater than twofold | elongation of pedicels and internodes of dwf7-2 (dwf7-2): significant elongation

C[C@@](O)(CCO)CC(=O)O [MVA, mevalonic acid]
reversal of compactin growth inhibition ([2]; 4.5 mM MVA applied simultaneously with 10 μM compactin): restored to the level of controls

CC(C)[C@H](C)[C@@H](O)[C@H](O)[C@@H](C)[C@H]1CC[C@H]2[C@@H]3COC(=O)[C@H]4C[C@H](O)[C@H](O)C[C@]4(C)[C@H]3CC[C@]12C [BL, brassinolide]
elongation of dwf7-1 pedicels in response to BRs (dwf7-1 plants [4]): greater than twofold | length of cells in dwf7-1 stem after BL treatment (dwf7-1 plants [4]; daily application of 10^-7 M BL for 1 week): converted to the length of the wild type | growth of treated dwf7-1 pedicels relative to wild-type (dwf7-1 plants [4]; in vivo): greater than or equal to that of the wild-type | elongation of pedicels and internodes of dwf7-2 (dwf7-2): significant elongation | elongation of dwf7-1 hypocotyls (increase) (dwf7-1 hypocotyls; 1 nM BL, BL-supplemented liquid media, light-grown, compared with untreated control): 160% | rescue of dwf7-1 hypocotyls to wild-type length (dwf7-1 hypocotyls; 10 nM (10^-8 M) BL): completely rescued | rescue of dwf7-1 hypocotyls to wild-type length (dwf7-1 hypocotyls; 100 nM BL): completely rescued | response of dwf7-1 hypocotyls to BL (dwf7-1 hypocotyls; 10^-9 M BL, light-grown (FIG. 3)): responds | wild-type hypocotyl increase ([5]; 1 nM BL, BL-supplemented liquid media, light-grown): 5% | BL concentration giving the strongest response of the wild type ([5]; hypocotyl length, liquid media (FIG. 3)): 100 nM
